# Reference: patent US11118208B2, “Methods for modulating protein galactosylation profiles of recombinant proteins using peracetyl galactose” (ARES TRADING S.A., priority 2016, dated 2021)
# Legend:
# [1] = test system: galactosylation of mAb1 antibody (mAb1 cells); experiment: Glycosylation profile of mAb1 produced in TubeSpin (CGE-LIF); type: cell-based, Chinese hamster
# Method: (§1) First assays were performed with an antibody produced in a CHO cell line: CHO-S cells expressing IgG1 mAb1, herein “Cells mAb1” or “mAb1 cells”. “mAb1” is a fully human monoclonal antibody directed against a soluble protein. Its isoelectric point (pI) is about 8.20-8.30.
# (§2) For examples 1-3: A serum-free chemically defined culture medium was used. It was used as it is, or it was supplemented with α- or β-2-F-peracetyl galactose (herein α- or β-2F-pGal; Biosynth & AX Molecules) at different concentrations (0-200 μM before seeding). The concentrations indicated on FIGS. 1, 2, 3 and 4 are the concentrations in α- or β-2F-pGal in the culture medium at day 0, just before the inoculation. The culture medium was fed, on a regular basis, with a chemically defined feed medium, as well as with glucose in order to keep said glucose level in the range of >0 to about 8 g/L (feeds are done at days 3, 5, 7, 10 and 12).
# (§3) The cultures were performed in deepwell plates (DWP) with a working volume of 450 μL. They were incubated at 36.5° C., 5% de CO2, 90% humidity and shaken at 320 rpm. Each of the fed-batch culture lasted 14 days. It is well known that experiments in DWP are artificial, although they allow a first screening of culture conditions. In order to confirm that the results obtained in DWP were reproducible at higher scale, similar experiments were also run in TubeSpin® (also called herein shake tubes or ST), with a working volume of 30 mL cell culture (same culture condition than for deepwell plates).
# (§4) Glycosylation profiles were established by capillary gel electrophoresis with laser-induced fluorescence (CGE-LIF; for DWP and for Shake tubes experiments) or by Ultra Performance Liquid Chromatography-2-amino-benzamide labelling technique (2AB-UPLC; for Shake tubes experiments). Groups of glycans were defined as thereafter in Table 3.
# [2] = test system: mAb1 cells (CHO-S cells expressing IgG1 mAb1); experiment: Fed-batch culture of mAb1 cells in TubeSpin (shake tubes): viable cell density, viability, titer; type: cell-based, Chinese hamster; settings: shake tubes
# Method: as §1
# (§5) Cells expressing mAb1 were inoculated at 0.3×10^6 cells per millilitre (mL), whereas Cells expressing mAb2 were inoculated at 0.2×10^6 cells per millilitre (mL).
# as §2, §3
# (§6) For TubeSpin® experiments, viable cell density and viability were measured with the ViCell®. Antibody titers were measured using Biacore®.
# [3] = test system: galactosylation of mAb1 antibody (cell line 1); experiment: Glycosylation profile of mAb1, supplementation as feed after the start of the culture (CGE-LIF); type: cell-based, Chinese hamster
# Description: (§7) For example 4: Additional experiments were run in similar conditions, except with regard to supplementation with α- or β-2-F-peracetyl galactose. In such a case, a serum-free chemically defined culture medium was used, supplemented with α- or β-2-F-peracetyl galactose as mentioned thereafter in Table 2.
# as §4
# [4] = test system: galactosylation of mAb1 antibody (mAb1 cells); experiment: Glycosylation profile of mAb1 produced in DWP (CGE-LIF); type: cell-based, Chinese hamster
# Method: as §1, §2, §3, §4
# (§8) The cells were cultivated and the results analysed as disclosed in the material and method section. It is noted that the controls (or control conditions) according to the present invention correspond to cells grown without peracetyl galactose.
# [5] = test system: mAb1 cells (CHO-S cells expressing IgG1 mAb1); experiment: Fed-batch culture of mAb1 cells in deepwell plates (DWP): viable cell density, viability, titer; type: cell-based, Chinese hamster
# Method: as §1, §5, §2, §3
# For DWP experiments, viable cell density and viability were measured with the Guava easyCyte® flow cytometer. Antibody titers were measured with the fortéBIO Octet®.
# as §8
# mAb1 cells (cell line 1) = experiment: Fed-batch culture of mAb1 cells, supplementation as feed after the start of the culture: cell density, viability, titer; type: cell-based, Chinese hamster
# Method: as §7, §3, §6
# Rather than supplementing the medium prior to inoculation, it was decided to start the galactose analog addition on day 3, 5 or 7 (respectively β-2F-pGal-d3, β-2F-pGal-d5 and β-2F-pGal-d7; see Table 2). Cell line 1 was used for these experiments. […] The peak cell densities were reached on day 7. No significant difference between the control and the β-2F-pGal-d3 supplemented cultures was observed. They both levelled off at 20.8 and 21.2×10^6 viable cells/mL, respectively. […] Overall, it can be assumed that the presence of β-2F-p-galactose induced limited changes on cell growth until day 7. In the second half of the culture, both the cell density and the viability (FIG. 11B) are correlated with the feed timing. Supplementation on day 3 most strongly impacted the course of the culture. At harvest, the cell density amounted to 9.8×10^6 viable cells/mL (control: 11.8×10^6 viable cells/mL). […] Feed addition on day 5 and 7, respectively, entailed viabilities on day 14 of 78 and 90% (control: 93%). According to FIG. 11C, no clear titer trend came forward. Early supplementation induced a slight titer increase on days 7 and 10, but then reduced productivity at later stages of the culture.
# CDC activity = settings: degalactosylated antibody; cited from earlier work
compound,measurement,setting,value
"CC(=O)OC[C@H]1O[C@@H](OC(C)=O)[C@H](F)[C@@H](OC(C)=O)[C@H]1OC(C)=O [β-2F-pGal, α/β-D-galactopyranose, 2-deoxy-2-fluoro-,1,3,4,6-tetraacetate]",total level of galactosylation decreased by (Example 2.2),"[1]; 60 μM β anomer, shake tubes, CGE-LIF, unit not given",−5.0
same,absolute change of galactosylated N-oligosaccharides compared to the control,"[1]; 60 μM, TubeSpin",around 4%
same,monogalactosylated form changed by (Example 2.2),"[1]; 60 μM, shake tubes, CGE-LIF, listed as β-2F-peracetyl-galactose",−4.7%
same,peak viable cell density at day 7,[2]; 60 μM,12.8 ×10^6 viable cells/mL
same,product titer at the end of the culture (day 14),"[2]; 60 μM, listed as β-2F-p-galactose",2225 mg/L
same,effect on cell culture performance,"[2]; between 0 and 90 μM α-2F-p-galactose, 60 μM β-2F-p-galactose",No detrimental effect
same,"protein titer compared to the control at culture days 5, 7, 10, 12 and 14","[2]; α 30-90 μM, β 60 μM, listed as β-2F-p-galactose",comparable to the control
same,effects on the other glycan species,[3]; feed after the start of the culture,remained small
same,di-galactosylated entity decrease,[3]; feed from day 3,−0.41
same,mono-galactosylated species drop,[3]; feed from day 3,−8.0%
same,overall galactosylation decrease (absolute change vs control),[3]; feed from day 3 (β-2F-pGal-d3),−8.5%
same,di-galactosylated entity decrease,[3]; feed from day 5,−0.33
same,mono-galactosylated species drop,[3]; feed from day 5,−6.7%
same,overall galactosylation decrease (absolute change vs control),[3]; feed from day 5 (β-2F-pGal-d5),−7.0%
same,di-galactosylated entity decrease,[3]; feed from day 7,−0.19
same,mono-galactosylated species drop,[3]; feed from day 7,−4.4%
same,overall galactosylation decrease (absolute change vs control),[3]; feed from day 7 (β-2F-pGal-d7),−4.6%
same,G1F absolute change compared to the control,[4]; 30 μM,1.1%
same,G2F absolute change compared to the control,[4]; 30 μM,0.20%
same,absolute change in galactosylated N-oligosaccharide compared to the control,[4]; 30 μM,2.2%
same,relative decrease of galactosylated N-oligosaccharides compared to control,[4]; 30 μM,22%
same,galactosylated N-oligosaccharides of the protein,[4]; 30 μM in medium,8.3%
same,G1F absolute change compared to the control,[4]; 60 μM,2.5%
same,G2F absolute change compared to the control,[4]; 60 μM,0.30%
same,absolute change in galactosylated N-oligosaccharide compared to the control,[4]; 60 μM,4.2%
same,relative decrease of galactosylated N-oligosaccharides compared to control,[4]; 60 μM,40%
same,galactosylated N-oligosaccharides of the protein,[4]; 60 μM in medium,6.4%
same,G1F absolute change compared to the control,[4]; 120 μM,3.1%
same,G2F absolute change compared to the control,[4]; 120 μM,0.33%
same,absolute change in galactosylated N-oligosaccharide compared to the control,[4]; 120 μM,5.4%
same,relative decrease of galactosylated N-oligosaccharides compared to control,[4]; 120 μM,52%
same,galactosylated N-oligosaccharides of the protein,[4]; 120 μM in medium,5.1%
same,G1F absolute change compared to the control,[4]; 200 μM,4.4%
same,G2F absolute change compared to the control,[4]; 200 μM,0.40%
same,absolute change in galactosylated N-oligosaccharide compared to the control,[4]; 200 μM,6.7%
same,relative decrease of galactosylated N-oligosaccharides compared to control,[4]; 200 μM,64%
same,galactosylated N-oligosaccharides of the protein,[4]; 200 μM in medium,3.9%
same,inhibition effect on galactosylation,[4]; below 30,neither α- or β-2F-pGal does have a significant inhibition effect on galactosylation
same,inhibition effect on galactosylation,[4]; concentrations higher than 30 μM,a significant inhibition effect is observed
same,decrease of titers comparing to control,[5]; concentration higher than 60 μM,about 1.2 factor
same,impact on protein titre,[5]; concentrations between 30 and 60,no impact on protein titre
same,impact on cell growth,[5]; concentrations of about 60 μM and higher,negative impact on cell growth
same,impact on cell growth until the end of culture,[5]; concentrations up to 30 μM in medium,no impact on cell growth
same,protein titer compared to the control,"[5]; media concentration up to 60 μM, day 10 and day 14",stays above the protein titer of the control
same,"impact on cell density, cell viability and protein titer",[5]; media concentrations below 30 μM,do not impact
same,cell density at harvest,mAb1 cells (cell line 1); feed from day 3 (β-2F-pGal-d3),9.8 ×106 viable cells/mL
same,protein titer (yield of the culture),mAb1 cells (cell line 1); feed from day 3 (β-2F-pGal-d3),2560 mg/L
same,viability,"mAb1 cells (cell line 1); feed from day 3 (β-2F-pGal-d3), second half of culture",below 60%
same,peak cell density (day 7),"mAb1 cells (cell line 1); feed from day 3 (β-2F-pGal-d3: days 3, 5, 7, 10)",21.2 ×106 viable cells/mL
same,protein titer (yield of the culture),mAb1 cells (cell line 1); feed from day 5 (β-2F-pGal-d5),3215 mg/L
same,viability on day 14,mAb1 cells (cell line 1); feed from day 5 (β-2F-pGal-d5),78%
same,maximum cell density,"mAb1 cells (cell line 1); feed from day 5 (β-2F-pGal-d5: days 5, 7, 10)",18.6 ×106 viable cells/mL
same,protein titer (yield of the culture),mAb1 cells (cell line 1); feed from day 7 (β-2F-pGal-d7),2100 mg/L
same,viability on day 14,"mAb1 cells (cell line 1); feed from day 7 (β-2F-pGal-d7: days 7, 10)",90%
"Rituxan: recombinant IgG whose degalactosylation was studied for CDC (Hodoniczky et al., 2005)",change of CDC after degalactosylation relative to unmodified control Mab,CDC activity,reduced CDC by approximately half
